The text below walks through data of patent US12570599B2, “Process for preparing acyl-capped 3-hydroxycarboxylic acids and their salts and esters” (KetoLipix Therapeutics GmbH, priority 2019, dated 2026).

The nature of data set [1]: Cleavage experiments in FaSSIF medium simulating the intestinal tract, with or without pancreatin (Panzytrat). The class given is in vitro ADME. Particulars: in the presence or absence of pancreatin. An excerpt: (§1) Esters tested: • 3-Acetylaceto-BHB ethyl ester • 3-Acetylaceto-BHB decyl ester • 3-Acetylaceto-BHB oleyl ester • 3-Acetylaceto-BHB cetyl ester • 3-Acetylaceto-BHB-margaryl ester • 3-Acetylaceto-BHB stearyl ester • 3-Acetylaceto-BHB behenyl ester • 3-Acetylaceto-BHB melissyl ester • 3-Acetylaceto-BHB palmitoyl ester • 3-Acetylaceto-BHB linoleyl ester For the cleavage experiments under near-body conditions two media are investigated: • FaSSGF, which simulates the stomach • FaSSIF, which simulates the intestinal tract Both media are from the company Biorelevant®, Ltd. in Great Britain. In addition, in some experiments porcine pancreas is added (Panzytrat® 40,000, Fa. Allergan).
(§2) Under FaSSIF conditions, a lower conversion using Panzytrat® takes place.

Data set [2] in a line: Cleavage experiments in FaSSGF medium simulating the stomach, with or without pancreatin (Panzytrat). The class given is in vitro ADME. Particulars: in the presence or absence of pancreatin.
Excerpt: as §1, §2

For data set [3], the system named is pancreatin (Panzytrat 40,000). The data set can be described thus: Cleavage experiments with pancreatin in water, followed by acid number. The class given is in vitro ADME, porcine. The following applies: each ester in its pure form, 50° C. The protocol: 2 g of each of the 3-acetoacetate-BHB ethyl esters prepared as described above and the 3-acetoacetate-BHB fatty alcohol esters prepared as described above are dissolved in 50 g water and 0.5 g (1% by weight) pancreatin is added. The pancreatin is used in the form of the commercially available product Panzytrat® 40,000 from the Allergan company. The whole mixture is stirred on a hot plate at 50° C.; the course of the reaction is determined and monitored by continuously recording the acid number over time. […] This is confirmed by corresponding analytics. The experiment proves that both the 3-acetylaceto-BHB ethyl ester according to the invention and the functionalized derivatives (i. e. 3-acetylaceto-BHB fatty alcohol esters) are suitable physiological precursors for 3-hydroxybutyric acid for the corresponding keto body therapies. The experiments are repeated and verified using each ester in its pure form.

For data set [4] the following is noted: several grams taken, patients; cited from earlier work.

On to `CCOC(=O)CC(C)OC(=O)CC(C)=O` (stereo not shown) [3-acetylaceto-BHB ethyl ester, 3-acetylacetobutyric acid ethyl ester], for which the “cleavage in intestinal medium” value in data set [1] is listed as “cleavage to 3-BHB in the free form”. The “cleavage in gastric medium” value in data set [2] is listed as “cleavage to 3-BHB in the free form”. In addition, in data set [3], the cleavage by pancreatin entry is listed as “cleaved by pancreatin”.
On to `CC(O)CC(=O)O` (stereo not shown) [3-hydroxybutyric acid], for which the duration of ketosis entry in data set [4] was “three to four”.
